Test results reported in ChEMBL document CHEMBL1201862, “PubChem BioAssay data set” (2004).
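These data come from cells grown in 96-well plates and exposed to compound for 48 hours at five concentrations. GI50 = concentration required for 50% inhibition of growth.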 Calls of active or inactive are those of the source. Rule as the data show it: active = GI50 up to about 1.1 µM and inactive = higher.

What was measured:
Assay in all cases: NCI anticancer screen, dose series, 48 h
BT-549 = test system: BT-549
EKVX = test system: EKVX
HCC 2998 = test system: HCC 2998
HCT-116 = test system: HCT-116
HL-60 = test system: HL-60
HT-29 = test system: HT-29
KM12 = test system: KM12
M14 = test system: M14
MDA-MB-435 = test system: MDA-MB-435
NCI-H460 = test system: NCI-H460
OVCAR-5 = test system: OVCAR-5
OVCAR-8 = test system: OVCAR-8
RPMI-8226 = test system: RPMI-8226
SF-539 = test system: SF-539
SK-OV-3 = test system: SK-OV-3
SNB-19 = test system: SNB-19
SW-620 = test system: SW-620
T47D = test system: T47D
UACC-257 = test system: UACC-257
RXF 393 = test system: RXF 393

| Compound | GI50 (BT-549) | GI50 (EKVX) | GI50 (HCC 2998) | GI50 (HCT-116) | GI50 (HL-60) | GI50 (HT-29) | GI50 (KM12) | GI50 (M14) | GI50 (MDA-MB-435) | GI50 (NCI-H460) | GI50 (OVCAR-5) | GI50 (OVCAR-8) | GI50 (RPMI-8226) | GI50 (SF-539) | GI50 (SK-OV-3) | GI50 (SNB-19) | GI50 (SW-620) | GI50 (T47D) | GI50 (UACC-257) | GI50 (RXF 393) |
| --- | --- | --- | --- | --- | --- | --- | --- | --- | --- | --- | --- | --- | --- | --- | --- | --- | --- | --- | --- | --- |
| O=C(O)c1cc(CC2Cc3cc4c(cc3C2=O)CCC4)cc2c1CCC2 (stereo not drawn) | > 100 µM (inactive) | > 100 µM (inactive) | > 100 µM (inactive) | 72.1 µM (inactive) | > 100 µM (inactive) | > 100 µM (inactive) | 75.2 µM (inactive) | > 100 µM (inactive) | > 100 µM (inactive) | > 100 µM (inactive) | > 100 µM (inactive) | > 100 µM (inactive) | 70.8 µM (inactive) | > 100 µM (inactive) | > 100 µM (inactive) | > 100 µM (inactive) | > 100 µM (inactive) | > 100 µM (inactive) | > 100 µM (inactive) |  |
| c1ccc(Nc2nnc(CCCCCCCCc3nnc(Nc4ccccc4)o3)o2)cc1 | > 100 µM (inactive) | > 100 µM (inactive) | 51.6 µM (inactive) | > 100 µM (inactive) | > 100 µM (inactive) | > 100 µM (inactive) | > 100 µM (inactive) | > 100 µM (inactive) | > 100 µM (inactive) | > 100 µM (inactive) | > 100 µM (inactive) | > 100 µM (inactive) |  | > 100 µM (inactive) | > 100 µM (inactive) | > 100 µM (inactive) | > 100 µM (inactive) |  | > 100 µM (inactive) | > 100 µM (inactive) |
| Oc1cc(-c2cccc(Cl)c2)nc2ncccc12 | 7.33 µM (inactive) |  | 0.0771 µM (active) | 0.0312 µM (active) | 0.0142 µM (active) | 0.0405 µM (active) | 0.0515 µM (active) | 0.0845 µM (active) | < 0.01 µM (active) | 0.0605 µM (active) |  | 0.377 µM (active) | 0.05 µM (active) | 0.0532 µM (active) | 0.163 µM (active) | 0.192 µM (active) | 0.114 µM (active) |  | 84.3 µM (inactive) | 0.219 µM (active) |
| CC(C)(C)c1cc(C(C)(C)C)c(SSc2c(C(C)(C)C)cc(C(C)(C)C)c(O)c2O)c(O)c1O | 13.8 µM (inactive) | 16.4 µM (inactive) |  | 10.9 µM (inactive) | 3.46 µM (inactive) | 13.2 µM (inactive) | 12.6 µM (inactive) | 11.7 µM (inactive) | 4.3 µM (inactive) | 3.89 µM (inactive) | 15.8 µM (inactive) | 12.3 µM (inactive) | 9.29 µM (inactive) |  |  | 11.7 µM (inactive) | 4.99 µM (inactive) | 4.32 µM (inactive) | 9.95 µM (inactive) | 16.4 µM (inactive) |
| Cc1cc(C(=O)CSC(=S)SC(C)(C)C)ccc1Cl | 21.9 µM (inactive) | 24.5 µM (inactive) | 16.7 µM (inactive) | 18.7 µM (inactive) | 18.4 µM (inactive) | 25.1 µM (inactive) | 20 µM (inactive) | 16.4 µM (inactive) | 23.7 µM (inactive) | 14.7 µM (inactive) | 21.9 µM (inactive) | 32.1 µM (inactive) | 21.9 µM (inactive) | 18.7 µM (inactive) | 34.1 µM (inactive) | 16 µM (inactive) | 23.2 µM (inactive) |  | 18.2 µM (inactive) | 13.4 µM (inactive) |
| S=C1NC2=C(COc3ccccc32)C(c2ccc(Cl)cc2)N1 (stereo not drawn) | 21.1 µM (inactive) | 17.1 µM (inactive) |  | 15.5 µM (inactive) | 13.9 µM (inactive) | 15.5 µM (inactive) | 16.2 µM (inactive) | 18.7 µM (inactive) | 24 µM (inactive) |  | 16.3 µM (inactive) | 21.6 µM (inactive) | 5.78 µM (inactive) | 16.6 µM (inactive) | 19.6 µM (inactive) | 22.9 µM (inactive) | 28.6 µM (inactive) | 18.2 µM (inactive) | 21.2 µM (inactive) | 15.5 µM (inactive) |
| CSc1nn(C)cc2nc(C)nc1-2 | > 100 µM (inactive) | > 100 µM (inactive) |  | > 100 µM (inactive) | > 100 µM (inactive) | > 100 µM (inactive) | > 100 µM (inactive) | > 100 µM (inactive) | > 100 µM (inactive) | > 100 µM (inactive) | > 100 µM (inactive) | > 100 µM (inactive) | > 100 µM (inactive) | > 100 µM (inactive) |  | > 100 µM (inactive) | > 100 µM (inactive) | > 100 µM (inactive) | > 100 µM (inactive) | > 100 µM (inactive) |
| COc1cc(C2c3cc4c(cc3C(=O)C3CCC(=O)N32)OCO4)cc(OC)c1O (stereo not drawn) | > 50 µM (inactive) | > 50 µM (inactive) |  | > 50 µM (inactive) | > 50 µM (inactive) | > 50 µM (inactive) | > 50 µM (inactive) | > 50 µM (inactive) | > 50 µM (inactive) | > 50 µM (inactive) | > 50 µM (inactive) | > 50 µM (inactive) | > 50 µM (inactive) | > 50 µM (inactive) | > 50 µM (inactive) | > 50 µM (inactive) | > 50 µM (inactive) | > 50 µM (inactive) | > 50 µM (inactive) | > 50 µM (inactive) |
| c1ccc(-c2sc(-c3ccccc3)c3c2C2CCC3C2)cc1 | 40.7 µM (inactive) | 42.1 µM (inactive) |  | 27 µM (inactive) | 37.5 µM (inactive) | 18.6 µM (inactive) | 30.6 µM (inactive) | 35.3 µM (inactive) | 38.6 µM (inactive) | 28.9 µM (inactive) | 53.8 µM (inactive) | 32.9 µM (inactive) | 16.1 µM (inactive) | 26 µM (inactive) | 64 µM (inactive) | > 100 µM (inactive) | 43.3 µM (inactive) | 38.7 µM (inactive) | 40.3 µM (inactive) | 24.3 µM (inactive) |
| CC(O)CCCCC(O)CCC[C@H](O)[C@H]1CCC([C@H]2CCC([C@@H](O)CCCCCCCCCCCCC3=C[C@H](C)OC3=O)O2)O1 (stereo partly drawn) | 11.2 µM (inactive) | 8.15 µM (inactive) | 13.2 µM (inactive) | 0.0667 µM (active) | 9.79 µM (inactive) | 10.7 µM (inactive) | 5.48 µM (inactive) | 11.4 µM (inactive) | 9.18 µM (inactive) | 8.22 µM (inactive) | 11.4 µM (inactive) | 10.1 µM (inactive) |  | 10.4 µM (inactive) | 11.7 µM (inactive) | 10.3 µM (inactive) | 12.8 µM (inactive) |  | 9.33 µM (inactive) | 12.1 µM (inactive) |
| CC1(C)/C(=N\NC(N)=O)C2CCC1C2 (stereo not drawn) | > 100 µM (inactive) | > 100 µM (inactive) |  | > 100 µM (inactive) | > 100 µM (inactive) | > 100 µM (inactive) | > 100 µM (inactive) | > 100 µM (inactive) | > 100 µM (inactive) | > 100 µM (inactive) | > 100 µM (inactive) | > 100 µM (inactive) | > 100 µM (inactive) |  | > 100 µM (inactive) | > 100 µM (inactive) | > 100 µM (inactive) | > 100 µM (inactive) | > 100 µM (inactive) |  |
| O=C1CSc2nnc(CCCCCCCCc3nnc4n3NC(=O)CS4)n2N1 | 56.8 µM (inactive) | > 100 µM (inactive) | > 100 µM (inactive) | 91.2 µM (inactive) | 31.5 µM (inactive) | 23.1 µM (inactive) | > 100 µM (inactive) | > 100 µM (inactive) | > 100 µM (inactive) | > 100 µM (inactive) | > 100 µM (inactive) | 27.4 µM (inactive) | 28.6 µM (inactive) | 48.9 µM (inactive) | > 100 µM (inactive) | 32.1 µM (inactive) | 73.6 µM (inactive) | > 100 µM (inactive) | 42.6 µM (inactive) |  |
| C[C@]12CC[C@@H]3c4cc(I)c(O)cc4CC[C@H]3[C@@H]1CC[C@@H]2O | 11.6 µM (inactive) | 2.65 µM (inactive) | 8.81 µM (inactive) |  | 5.65 µM (inactive) | 17.3 µM (inactive) | 3.27 µM (inactive) | 4.09 µM (inactive) |  | 3.64 µM (inactive) | 12.7 µM (inactive) | 6.52 µM (inactive) | 7.74 µM (inactive) |  | 4.25 µM (inactive) | 7.33 µM (inactive) | 3.58 µM (inactive) | 8.55 µM (inactive) | 8.61 µM (inactive) | 6.07 µM (inactive) |
| CCNC(=S)NNC(=O)c1ccccc1Nc1ccccc1C(=O)NNC(=S)NCC | > 100 µM (inactive) | > 100 µM (inactive) | > 100 µM (inactive) | > 100 µM (inactive) | > 100 µM (inactive) | > 100 µM (inactive) | > 100 µM (inactive) | > 100 µM (inactive) | > 100 µM (inactive) | > 100 µM (inactive) | > 100 µM (inactive) | > 100 µM (inactive) | > 100 µM (inactive) |  | > 100 µM (inactive) | > 100 µM (inactive) | > 100 µM (inactive) | > 100 µM (inactive) |  |  |
| O=C(O)/C=C/c1ccc(Oc2ccccc2C(=O)O)o1 | > 10 µM (inactive) |  | > 10 µM (inactive) | > 10 µM (inactive) | > 10 µM (inactive) | > 10 µM (inactive) | > 10 µM (inactive) | > 10 µM (inactive) | > 10 µM (inactive) |  |  | > 10 µM (inactive) | > 10 µM (inactive) | > 10 µM (inactive) | > 10 µM (inactive) | > 10 µM (inactive) | > 10 µM (inactive) | > 10 µM (inactive) | > 10 µM (inactive) |  |
